According to PMC5847527, “Identification of a novel 2-oxindole fluorinated derivative as in vivo antitumor agent for prostate cancer acting via AMPK activation” (Scientific Reports, 2018):

Assays:
[1] = test system: Androgen Receptor (AR); test: Androgen Receptor expression by Western blot in LNCaP cells; type: cell-based, human; conditions: 25 µM, 24 hours
Protocol: Figure 5 AMPK activation by compound 8c in prostate cancer cells. (A) PC-3 and LNCaP cells were treated with vehicle, 25 µM compound 8c, 25 µM compound 8c + 5 μM Dorsomorphin (8c + D) or 5 μM Dorsomorphin (D), for 1 hour or 24 hours and levels of the phosphorylated AMPK (pAMPK), phosphorylated ACC (pACC), phosphorylated Raptor (pRaptor) forms and HIF1α were determined by Western blot. Upper panel, representative Western blot of three different experiments. β-tubulin (β-Tub) serves as a loading control. Lower panel, densitometric analyses of bands represented as the mean of the ratio pAMPK/AMPK or pACC/ACC. (B) Cell viability monitored by MTT assay in PC-3 and LNCaP cells treated with vehicle, 25 µM and 50 μM compound 8c alone or in the presence of 5 μM Dorsomorphin or transfected with control siRNA (siC) or α1AMPK-selective siRNA (siAMPK). (C) LNCaP cells were treated with vehicle, 25 µM compound 8c, 25 µM compound 8c + 5 μM Dorsomorphin (8c + D) or 5 μM Dorsomorphin (D), for 24 hours and levels of Androgen Receptor (AR), Prostate specific antigen (PSA) and Prostate specific membrane antigen (PSMA) were determined by Western blot.Values were normalized with the control and represent the mean ± SD of at least three independent experiments. *p < 0.05 and **p < 0.01 compared to control and ^#p < 0.05 and ^##p < 0.01 compared with 8c-treated group by the Student’s t-test. […]

[2] = test system: Cyclin D1; test: Cyclin D1 level by Western blot in PC-3 and LNCaP cells; type: cell-based, human
Protocol: Figure 4 Cell Cycle analysis in 8c-treated prostate cancer cells. (A) PC-3 and LNCaP cells were treated with compound 8c for 24 hours and cell cycle analysis was analyzed by flow cytometry using Propidium Iodide (PI). Percentage of cells in subG0, G1, S, and G2/M phases is indicated in the histogram. (B) Levels of Cyclin D1, p-p53, p53, p21 and cleaved Caspase 3 (17 kDa fragment) were determined by Western blot. Upper panel, representative Western blot of two different experiments. β-tubulin (β-Tub) serves as a loading control. Lower panel, the densitometric analyses of bands represented as the mean ± SD of the two different experiments. *p < 0.05 and **p < 0.01 compared with the control group by the Student’s t-test.
There are many intracellular mechanisms whereby AMPK activation inhibits cell growth. […] To further investigate the mechanism underpinning the cell viability inhibitory effect of compound 8c, levels of Cyclin D1 were determined by Western blot in PC-3 and LNCaP cells.
Cells were lysed in Lysis buffer (50 mM Tris pH 7.4, 0.8 M NaCl, 5 mM MgCl2, 0.1% Triton X-100) containing Protease Inhibitor and Phosphatase inhibitor Cocktails (Roche, Basel, Switzerland). Protein concentrations were measured by BioRad™ protein assay kit (Richmond, CA, USA). […] Films were analyzed by densitometry. […]

O=C1Nc2ccccc2C1(F)Cc1ccc(-c2ccccc2)o1 (centres unmarked) [Compound 8c, 3-fluoro-3-((5-phenylfuran-2-yl)methyl)indolin-2-one]
expression of AR [1]: markedly reduced the expression of AR
Cyclin D1 level [2]: marked decrease in Cyclin D1 level
